Several values for one entry are separate records, joined by “and”; a condition that tells them apart may be missing. Equal values may be shown once.
Tested on: Hs578T complex spheroid growth, percent test/control
Experiment: Anticancer human tumor Hs578T cell line growth inhibition [AhR];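 also: luminescent viability signal as a proxy for spheroid growth; spheroids exposed to agents for one week after three days of growth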
Details: for viability, T/C: stronger effect = lower value
Procedure, shortened: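 Spheroids combined tumor cells with HUVEC endothelial cells and human MSCs as stroma. AhR antagonists were paired with standard or investigational drugs, each dosed in half-log steps down from near clinical Cmax, or from 10 microM where Cmax was unknown.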

[1] = curve of first compound, second compound 0.1 µM
[2] = curve of first compound, second compound 0.316 µM
[3] = curve of first compound, second compound 1 µM
[4] = curve of first compound, second compound 3.16 µM
[5] = curve of first compound, second compound 10 µM
[6] = second compound 0.1 µM, first compound 0.0316 µM
[7] = second compound 0.1 µM, first compound 0.1 µM
[8] = second compound 0.1 µM, first compound 0.316 µM
[9] = second compound 0.1 µM, first compound 1 µM
[10] = second compound 0.1 µM, first compound 3.16 µM
[11] = second compound 0.1 µM, first compound 10 µM
[12] = second compound 0.316 µM, first compound 0.0316 µM
[13] = second compound 0.316 µM, first compound 0.1 µM
[14] = second compound 0.316 µM, first compound 0.316 µM
[15] = second compound 0.316 µM, first compound 1 µM
[16] = second compound 0.316 µM, first compound 3.16 µM
[17] = second compound 0.316 µM, first compound 10 µM
[18] = second compound 1 µM, first compound 0.0316 µM
[19] = second compound 1 µM, first compound 0.1 µM
[20] = second compound 1 µM, first compound 0.316 µM
[21] = second compound 1 µM, first compound 1 µM
[22] = second compound 1 µM, first compound 3.16 µM
[23] = second compound 1 µM, first compound 10 µM
[24] = second compound 3.16 µM, first compound 0.0316 µM
[25] = second compound 3.16 µM, first compound 0.1 µM
[26] = second compound 3.16 µM, first compound 0.316 µM
[27] = second compound 3.16 µM, first compound 1 µM
[28] = second compound 3.16 µM, first compound 3.16 µM
[29] = second compound 3.16 µM, first compound 10 µM
[30] = second compound 10 µM, first compound 0.0316 µM
[31] = second compound 10 µM, first compound 0.1 µM
[32] = second compound 10 µM, first compound 0.316 µM
[33] = second compound 10 µM, first compound 1 µM
[34] = second compound 10 µM, first compound 3.16 µM
[35] = second compound 10 µM, first compound 10 µM

## COc1ccc([C@@H](O)c2cc(-c3ncnc4cc(N5CCOCC5)ccc34)c(F)cc2Cl)nn1 + Cc1cncc(-c2nc(NCCc3c[nH]c4ccccc34)c3ncn(C(C)C)c3n2)c1
[1]
  IC50: 5740 nM
[2]
  IC50: 5830 nM
[3]
  IC50: 5990 nM
[4]
  IC50: 2560 nM
[5]
  IC50: < 31.6 nM
[6]
  viability, T/C: 108%
[7]
  viability, T/C: 115%
[8]
  viability, T/C: 104%
[9]
  viability, T/C: 86%
[10]
  viability, T/C: 61%
[11]
  viability, T/C: 40.3%
[12]
  viability, T/C: 112%
[13]
  viability, T/C: 114%
[14]
  viability, T/C: 109%
[15]
  viability, T/C: 92.5%
[16]
  viability, T/C: 59%
[17]
  viability, T/C: 42.1%
[18]
  viability, T/C: 103%
[19]
  viability, T/C: 118%
[20]
  viability, T/C: 102%
[21]
  viability, T/C: 84.8%
[22]
  viability, T/C: 58.6%
[23]
  viability, T/C: 43.4%
[24]
  viability, T/C: 68.6%
[25]
  viability, T/C: 61%
[26]
  viability, T/C: 64.8%
[27]
  viability, T/C: 56.2%
[28]
  viability, T/C: 48.4%
[29]
  viability, T/C: 36.1%
[30]
  viability, T/C: 5%
[31]
  viability, T/C: 4.23%
[32]
  viability, T/C: 5.09%
[33]
  viability, T/C: 5.36%
[34]
  viability, T/C: 7.09%
[35]
  viability, T/C: 9.8%

## CCc1c2c(nc3ccc(O)cc13)-c1cc3c(c(=O)n1C2)COC(=O)[C@]3(O)CC
Compound 0.000949 µM
  viability, T/C: 83.3% and 77.6% and 78.6%
Compound 0.003 µM
  viability, T/C: 70.5% and 82.2% and 73.2%
Compound 0.00949 µM
  viability, T/C: 74% and 64.3% and 76.1%
Compound 0.03 µM
  viability, T/C: 64.6% and 63.2% and 75%
Compound 0.0949 µM
  viability, T/C: 62.3% and 56.5% and 61.9%
Compound 0.3 µM
  viability, T/C: 47.1% and 38.3% and 43.4%
Curve of compound
  IC50: 253 nM and 124 nM and 206 nM

## CC1COCCN1c1cc(C2(S(C)(=N)=O)CC2)nc(-c2ccnc3[nH]ccc23)n1 (stereo unspecified) + CC(CO)NC(=O)c1cc(-c2ccc(Cl)cc2)nn(-c2cnn(C)c2)c1=O
[1]
  IC50: > 10000 nM
[2]
  IC50: > 10000 nM
[3]
  IC50: > 10000 nM
[4]
  IC50: > 10000 nM
[5]
  IC50: > 10000 nM
[6]
  viability, T/C: 112%
[7]
  viability, T/C: 117%
[8]
  viability, T/C: 108%
[9]
  viability, T/C: 107%
[10]
  viability, T/C: 90.5%
[11]
  viability, T/C: 60.3%
[12]
  viability, T/C: 113%
[13]
  viability, T/C: 122%
[14]
  viability, T/C: 127%
[15]
  viability, T/C: 100%
[16]
  viability, T/C: 85.2%
[17]
  viability, T/C: 61.3%
[18]
  viability, T/C: 111%
[19]
  viability, T/C: 134%
[20]
  viability, T/C: 112%
[21]
  viability, T/C: 111%
[22]
  viability, T/C: 94.7%
[23]
  viability, T/C: 66%
[24]
  viability, T/C: 111%
[25]
  viability, T/C: 114%
[26]
  viability, T/C: 114%
[27]
  viability, T/C: 111%
[28]
  viability, T/C: 91.7%
[29]
  viability, T/C: 59.5%
[30]
  viability, T/C: 105%
[31]
  viability, T/C: 121%
[32]
  viability, T/C: 122%
[33]
  viability, T/C: 116%
[34]
  viability, T/C: 90.9%
[35]
  viability, T/C: 58.8%

## Cc1cncc(-c2nc(NCCc3c[nH]c4ccccc34)c3ncn(C(C)C)c3n2)c1
Compound 0.1 µM
  viability, T/C: 107% [middle of 20 runs]
Compound 0.316 µM
  viability, T/C: 110% [middle of 20 runs]
Compound 10 µM
  viability, T/C: 6.41% [middle of 20 runs]
Compound alone, run of 08/16/2022
  IC50: 4.32 µM [middle of 24 runs]

## Cn1ncnc1C1c2n[nH]c(=O)c3cc(F)cc(c23)NC1c1ccc(F)cc1 (stereo unspecified) + Cc1cncc(-c2nc(NCCc3c[nH]c4ccccc34)c3ncn(C(C)C)c3n2)c1
[1]
  IC50: > 100 nM
[2]
  IC50: > 100 nM
[3]
  IC50: > 100 nM
[4]
  IC50: > 100 nM
[5]
  IC50: < 0.316 nM
Second compound 0.1 µM, first compound 0.000316 µM
  viability, T/C: 103%
Second compound 0.1 µM, first compound 0.001 µM
  viability, T/C: 104%
Second compound 0.1 µM, first compound 0.00316 µM
  viability, T/C: 112%
Second compound 0.1 µM, first compound 0.01 µM
  viability, T/C: 99%
[6]
  viability, T/C: 111%
[7]
  viability, T/C: 108%
Second compound 0.316 µM, first compound 0.000316 µM
  viability, T/C: 107%
Second compound 0.316 µM, first compound 0.001 µM
  viability, T/C: 115%
Second compound 0.316 µM, first compound 0.00316 µM
  viability, T/C: 116%
Second compound 0.316 µM, first compound 0.01 µM
  viability, T/C: 106%
[12]
  viability, T/C: 97.4%
[13]
  viability, T/C: 108%
Second compound 1 µM, first compound 0.000316 µM
  viability, T/C: 101%
Second compound 1 µM, first compound 0.001 µM
  viability, T/C: 105%
Second compound 1 µM, first compound 0.00316 µM
  viability, T/C: 98%
Second compound 1 µM, first compound 0.01 µM
  viability, T/C: 98.5%
[18]
  viability, T/C: 97%
[19]
  viability, T/C: 97.6%
Second compound 3.16 µM, first compound 0.000316 µM
  viability, T/C: 67.8%
Second compound 3.16 µM, first compound 0.001 µM
  viability, T/C: 73.3%
Second compound 3.16 µM, first compound 0.00316 µM
  viability, T/C: 72.4%
Second compound 3.16 µM, first compound 0.01 µM
  viability, T/C: 69%
[24]
  viability, T/C: 70.5%
[25]
  viability, T/C: 64.1%
Second compound 10 µM, first compound 0.000316 µM
  viability, T/C: 8.48%
Second compound 10 µM, first compound 0.001 µM
  viability, T/C: 9.41%
Second compound 10 µM, first compound 0.00316 µM
  viability, T/C: 9.77%
Second compound 10 µM, first compound 0.01 µM
  viability, T/C: 7.44%
[30]
  viability, T/C: 9.58%
[31]
  viability, T/C: 9.69%

Source: PubChem BioAssay AID1919010 (Molecular Pharmacology Branch, DTP, NCI, 2023)
